PMC3625376 (Journal of the American Chemical Society, 2013)

System: blood glucose in diabetic rats
Assay: diabetic rat assay
Assay type: in vivo
Conditions: Figure 5 panels C and D

Substance	activity in lowering blood glucose in diabetic rats (in words)
WT insulin (biosynthetic): wild type (wt) biosynthetic insulin used as positive control	fully active
[Asp^B10, Lys^B28, Pro^B29]-insulin [DKP insulin (biosynthetic)]	fully active
